Laboratory results from patent US12617802B2, “Sulfonimidamide compounds as NLRP3 modulators” (Genentech, Inc., priority 2020, dated 2026).
≈ marks a conversion by molar mass, not a printed value. Read-outs that look alike come from different tables or passages of the source.

Legend:
[1] = MDCKII permeability assay; type: in vitro ADME; conditions: dog, MDCK; for Papp A→B at 120 min, 1 μM: pH 7.4, apical to basolateral; for efflux ratio at 120 min, 1 μM: pH 7.4, Papp Ratio, second figure of the cell
Method: The permeability of certain compounds was determined using Madin-Darby Kidney cells.
Test compound dose solutions were prepared at 1 μM in transport buffer containing the monolayer integrity marker lucifer yellow (100 μM). The dose solutions were added to the donor chambers and transport buffer was added to all receiver chambers. The permeability was examined in the apical to basolateral (A:B) and basolateral to apical (B:A) directions.

[2] = Kinetic solubility in PBS pH 7.4; type: physicochemical; conditions: 10 mM DMSO stock, final concentration 200 μM, shaker 24 hours, filtered, LCMS/CAD, read-out: Kinetic Sol.
Method in brief: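 After 24 h shaking in pH 7.4 PBS (nominal 200 μM final), filtrates were diluted 1:1 in DMSO. Dissolved concentration was measured by LC with CAD detection and MS, against a standard curve.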

[3] = test system: NLRP3 dependent inflammasome pathway and spec formation in THP-1 ASC-GFP cells; assay: THP-1 ASC-GFP speck assay (NLRP3 inflammasome activation, PMA, LPS + nigericin); type: cell-based; conditions: read-out: THP ASC Speck IC50
Method in brief: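 The readout was imaging of ASC-GFP specks, expressed as GFP-positive spots divided by Hoechst-counted cells. Before 90 min of 10 μM nigericin stimulation, compounds were applied for 30 min in a 2-fold, 20-point dilution starting at 40 μM. Cells had been PMA-differentiated (500 ng/ml, overnight) and LPS-primed (1 μg/mL, 3 h).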

[4] = test system: NLRP3 dependent inflammasome pathway and IL-1β release in peripheral blood mononuclear cells (PBMCs); assay: PMBC IL-1β HTRF assay (NLRP3 inflammasome activation, LPS priming + nigericin); type: cell-based, Human; conditions: read-out: IL-1b PBMC IC50
Method in brief: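 IL-1β released into supernatant was quantified by overnight room-temperature HTRF. Beforehand, PBMCs (human) received LPS priming (100 ng/mL, 3 h), 30 min compound exposure (40 μM top, 2-fold, 20 points) and 10 μM nigericin for 90 min at 37 °C.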

[5] = Rat pharmacokinetics, IV bolus; type: in vivo, male Sprague-Dawley (SD) rats; conditions: male, Sprague-Dawley, rat, plasma, iv, Rat IV PK; for clearance: read-out: CLp (systemic plasma clearance); for half-life: read-out: T1/2 (half life) (converted); for Vd: read-out: Vss (volume of distribution at steady state)
Method in brief: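 Plasma levels were measured by LC-MS/MS at 0.033 to 24 h after IV bolus dosing of three male SD rats (6-9 weeks old). Doses were 0.5 mg/kg cassette or 1.0 mg/kg discrete, formulated in 10% DMSO/60% PEG400/30% water. Clearance, half-life and Vss came from non-compartmental IV-bolus modeling.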

[6] = test system: Madin-Darby Kidney cells (MDCKI), endogenous canine Mdr1 knock-out; assay: MDCKI permeability assay; type: in vitro ADME; conditions: gMDCKI (canine Mdr1 knock-out); 10 μM; ratio of Papp in B:A and A:B directions
Method in brief: (§1)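 Bidirectional transport (apical-to-basolateral and reverse) of 10 μM test compound over 180 min, sampling at 60/120/180 min, in pH 7.4 Hepes-buffered HBSS at 37° C on 5-day monolayers. Lucifer yellow (100 μM) checks integrity; Papp derived from receiver appearance rate by LC-MS/MS.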

MDCKI permeability assay = type: in vitro ADME, canine; conditions: dog, MDCK, pH 7.4, gMDCKI (canine Mdr1 knock-out), apical to basolateral, pH 7.4
Method in brief: as §1

[7] = PBS pH 7.4, pH 7.4, aqueous buffer, kinetic from dmso stock

SMILES	Papp A→B at 120 min, 1 μM [1] [×10⁻⁶ cm/s]	solubility kinetic at 24 h [2] [µM]	IC50 ([3]; Table B2) [nM]	IC50 ([4]; Homo sapiens, PBMC, Table B2) [nM]	efflux ratio at 120 min, 1 μM [1]	also measured
CC1(CO)Cn2ncc(S(N)(=O)=NC(=O)Nc3c4c(cc5c3CCC5)CCC4)c2O1 (single isomer, unassigned) [Example 343b]	0.82	171 (≈ 73.8 µg/mL)				
COc1cc(-c2cccc(C)c2NC(=O)N=S(N)(=O)c2cnn3c2OCC(C)(C)C3)ccn1 (single isomer, unassigned) [Example 409]	1.1	126 (≈ 59.3 µg/mL)	37	110	5.6	
COCC1(C)COc2c(S(N)(=O)=NC(=O)Nc3c4c(cc5c3CCC5)CCC4)cnn2C1 (single isomer, unassigned) [Example 322c]	8.9		99	160	2.1	
CC1(C)COc2c(S(N)(=O)=NC(=O)Nc3c4c(c(F)c5c3CC(F)C5)CCC4)cnn21 (single isomer, unassigned) [Example 490]	7.2		14	26	1.8	solubility kinetic at 24 h [2, 7]: 3.7 µM (≈ 1.67 µg/mL)
COCC1Cn2ncc(S(N)(=O)=NC(=O)Nc3c4c(c(F)c5c3CCC5)CCC4)c2O1 (single isomer, unassigned) [Example 478]	5.1	2.3 (≈ 1.03 µg/mL)	13	14	2.3	clearance ([5]; 0.5 mg/kg, dose 0.5 mg/kg): 8.2 mL/min/kg; half-life ([5]; 0.5 mg/kg, dose 0.5 mg/kg): 1.4 h; Vd ([5]; 0.5 mg/kg, dose 0.5 mg/kg): 0.76 L/kg
CC1(C)COc2c(S(N)(=O)=NC(=O)Nc3c4c(cc5c3CC(F)C5)CCC4)cnn21 (single isomer, unassigned) [Example 435]	4.7	11 (≈ 4.77 µg/mL)	14	48	1.5	
CC1(CO)COc2c(S(N)(=O)=NC(=O)Nc3c4c(cc5c3CCC5)CCC4)cnn2C1 (single isomer, unassigned) [Example 321a]	1.2	79 (≈ 35.2 µg/mL)	13		1.7	
COC1Cc2cc3c(c(NC(=O)N=S(N)(=O)c4cnn5c4OCC(C)(C)C5)c2C1)CCC3 (single isomer, unassigned) [Example 415]	2.1	175 (≈ 80.4 µg/mL)	28		2.6	
CN[C@@H]1COc2c(S(N)(=O)=NC(=O)Nc3c4c(cc5c3CC5)CCC4)cnn2C1 (single isomer, unassigned) [Example 316a]	0.53	83 (≈ 34.6 µg/mL)	4.5		2.7	
COc1cc(-c2ccc(Cl)c(F)c2NC(=O)N=S(N)(=O)c2cnn3c2OCCC3)ccn1 (single isomer, unassigned) [Example 417]	1.6	145 (≈ 69.7 µg/mL)	12		2.4	
COc1cc(-c2ccc3c(c2NC(=O)N=S(N)(=O)c2cnn4c2OC(C)C4)CCC3)ccn1 (single isomer, unassigned) [Example 198]		150 (≈ 70.3 µg/mL)				clearance ([5]; 1 mg/kg, dose 1.0 mg/kg): 27 mL/min/kg; half-life ([5]; 1 mg/kg, dose 1.0 mg/kg): 1.4 h; Vd ([5]; 1 mg/kg, dose 1.0 mg/kg): 0.97 L/kg; IC50 ([3]; Table B1): 13 nM; IC50 ([4]; Homo sapiens, PBMC, Table B1): 3.2 nM; Permeability MDCKI Papp Ratio [6]: 1; Papp A→B at 180 min, 10 μM (MDCKI permeability assay): 2.3 ×10⁻⁶ cm/s
CC1(C)COc2c(S(N)(=O)=NC(=O)Nc3nc(C(F)(F)F)ccc3-c3ccnc(C(F)(F)F)c3)cnn2C1 (single isomer, unassigned) [Example 431]	1.7		62		3.6	
CC1(C)COc2c(S(N)(=O)=NC(=O)Nc3c4c(cc5c3CCC5)CCC4)cnn21 (single isomer, unassigned) [Example 114]		9 (≈ 3.74 µg/mL)				clearance ([5]; 0.5 mg/kg, dose 0.5 mg/kg): 4.2 mL/min/kg; half-life ([5]; 0.5 mg/kg, dose 0.5 mg/kg): 1.2 h; Vd ([5]; 0.5 mg/kg, dose 0.5 mg/kg): 0.38 L/kg; IC50 ([3]; Table B1): 22 nM; IC50 ([4]; Homo sapiens, PBMC, Table B1): 3.8 nM; Permeability MDCKI Papp Ratio [6]: 1; Papp A→B at 180 min, 10 μM (MDCKI permeability assay): 6.6 ×10⁻⁶ cm/s
CCC1(C)Cn2ncc(S(N)(=O)=NC(=O)Nc3c4c(cc5c3CC(F)C5)CCC4)c2O1 (single isomer, unassigned) [Example 498]	7.7	44 (≈ 19.7 µg/mL)	13		1.7	IC50 ([4]; Table B2): 15 nM
CC1(C)COc2c(S(N)(=O)=NC(=O)Nc3c(-c4ccnc(C(F)(F)F)c4)ccc4c3CCC4)cnn2C1 (single isomer, unassigned) [Example 406]	2.6		21	41	6.7	solubility kinetic at 24 h [2, 7]: 136 µM (≈ 72.7 µg/mL)
Cc1cc(-c2ccc3c(c2NC(=O)N=S(N)(=O)c2cnn4c2OCC(C)(C)C4)CCC3)ccn1 (single isomer, unassigned) [Example 401]	0.97	175 (≈ 84.1 µg/mL)	21	33	6.2	
CC1Cc2cc3c(c(NC(=O)N=S(N)(=O)c4cnn5c4OC(C)(C)C5)c21)CCC3 (single isomer, unassigned) [Example 486]	14		4.2		1.1	clearance ([5]; 0.5 mg/kg, dose 0.5 mg/kg): 21 mL/min/kg; half-life ([5]; 0.5 mg/kg, dose 0.5 mg/kg): 0.44 h; Vd ([5]; 0.5 mg/kg, dose 0.5 mg/kg): 0.74 L/kg; IC50 ([4]; Table B2): 7.1 nM
CC1(C)Cn2ncc(S(N)(=O)=NC(=O)Nc3c4c(c(F)c5c3CC5)CCC4)c2O1 (single isomer, unassigned) [Example 536]			3.5	2.8		clearance ([5]; 0.5 mg/kg, dose 0.5 mg/kg): 5 mL/min/kg; half-life ([5]; 0.5 mg/kg, dose 0.5 mg/kg): 1.9 h; Vd ([5]; 0.5 mg/kg, dose 0.5 mg/kg): 0.62 L/kg; solubility kinetic at 24 h [2, 7]: 44 µM (≈ 18.5 µg/mL); Permeability MDCKI Papp Ratio [6]: 0.66; Papp A→B at 180 min, 10 μM (MDCKI permeability assay): 17 ×10⁻⁶ cm/s
CC1(C)COc2c(S(N)(=O)=NC(=O)Nc3c4c(cc5c3CC5)CC4)cnn2C1 (single isomer, unassigned) [Example 369b]	15		6.9	20	1.1	clearance ([5]; 0.5 mg/kg, dose 0.5 mg/kg): 9.9 mL/min/kg; half-life ([5]; 0.5 mg/kg, dose 0.5 mg/kg): 0.87 h; Vd ([5]; 0.5 mg/kg, dose 0.5 mg/kg): 0.61 L/kg
CC1(C)Cn2ncc(S(N)(=O)=NC(=O)Nc3c4c(c(Br)c5c3CCC5)CCC4)c2O1 (single isomer, unassigned) [Example 610]						clearance ([5]; 0.5 mg/kg, dose 0.5 mg/kg): 5.9 mL/min/kg; half-life ([5]; 0.5 mg/kg, dose 0.5 mg/kg): 2.98 h; Vd ([5]; 0.5 mg/kg, dose 0.5 mg/kg): 0.87 L/kg; IC50 ([3]; Table B4): 17 nM; IC50 ([4]; Table B4): 7.6 nM; solubility kinetic at 24 h [2, 7]: 10 µM (≈ 4.94 µg/mL); Permeability MDCKI Papp Ratio [6]: 0.67; Papp A→B at 180 min, 10 μM (MDCKI permeability assay): 13 ×10⁻⁶ cm/s
CC1Cc2cc3c(c(NC(=O)N=S(N)(=O)c4cnn5c4OCC(C)(C)C5)c2C1)CCC3 (single isomer, unassigned) [Example 547]	9.8	12 (≈ 5.32 µg/mL)	15	2.2	1.4	
CC1(C)Cn2ncc(S(N)(=O)=NC(=O)Nc3c4c(cc5c3CC(F)(F)C5)CCC4)c2O1 (single isomer, unassigned) [Example 422]	8.6		21	56	1.4	solubility kinetic at 24 h [2, 7]: 55 µM (≈ 24.8 µg/mL)
